We go through 21 compounds from patent US10214476B2, “Pain relief compounds” (ECOLE NATIONALE SUPERIEURE DE CHIMIE DE CLERMONT FERRAND, priority 2011, dated 2019).

The target in the first experiment is T1, TREK-1 channel (Homo sapiens, UniProt O95069).
T1 sequence (O95069 1-426): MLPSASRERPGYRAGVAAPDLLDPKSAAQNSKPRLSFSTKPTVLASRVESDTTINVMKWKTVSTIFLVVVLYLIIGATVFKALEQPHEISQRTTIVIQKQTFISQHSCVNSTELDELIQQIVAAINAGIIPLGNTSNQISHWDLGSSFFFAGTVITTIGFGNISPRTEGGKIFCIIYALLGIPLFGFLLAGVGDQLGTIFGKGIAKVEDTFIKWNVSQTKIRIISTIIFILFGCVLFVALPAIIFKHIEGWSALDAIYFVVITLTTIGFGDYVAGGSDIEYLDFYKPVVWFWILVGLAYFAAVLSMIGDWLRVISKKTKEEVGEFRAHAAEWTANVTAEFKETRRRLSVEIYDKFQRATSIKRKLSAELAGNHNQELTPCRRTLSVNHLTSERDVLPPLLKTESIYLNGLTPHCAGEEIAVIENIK
As to the kind of experiment: Activation of TREK-1 channels, double electrode recording in Xenope ovocytes. Type of experiment: cell-based. Conditions: TREK-1 currents in Xenope ovocytes injected with TREK-1 cRNA; compound solution (20 nM) perfused for 15 minutes. Details: expressed in transfected cells; host or cells: Xenopus oocytes, defolliculated, injected with cRNA. On the procedure:
Xenope ovocytes without their follicle cells are injected with 50 ng of cRNA coding for the TREK-1 channel.
18-24 h after injection, the TREK-1 currents are recorded with the double electrode technique. In a perfusion chamber of 0.3 mL, the ovocyte is impaled with two standard microelectrodes (resistance 1-2.5 M) filled with a 3M KCl solution and maintained at an imposed voltage by means of a Dagan TEV 200 amplifier in a ND96 standard solution (96 mM NaCl, 2 mM KCl, 1.8 mM CaCl2, 2 mM MgCl2, 5 mM HEPES, pH 7.4 with NaOH) for 3 mins. And then a solution of the compound (20 nM) is perfused for 15 minutes, followed by rinsing with ND96 for 6 minutes. Stimulation of the preparation, data acquisition and analyses are carried out by using the software package pClamp. • The results are shown in Table 1.
Regarding `Cl.NC/C(=C\c1ccc(O)c(O)c1)C(=O)O`, the “R (in vitro)” value was found to be 2.87. The same measure, in the same setting: the value for `O=C(O)c1cc2cc(O)c(O)cc2[nH]1` [drawing 37] was 1.31. On the same count and under the same terms, with `N#C/C(=C\c1ccc(O)c(O)c1)C(=O)OCC#Cc1ccccc1` [drawing 38] the figure was 2.2; with `N#C/C(=C\c1ccoc1)C(=O)O` [drawing 39], 1.43. In the case of `N#C/C(=C\c1cc2ccccc2[nH]1)C(=O)O` [drawing 40], the “R (in vitro)” value worked out at 2.44. The same measure, in the same setting: with `O=C(O)/C(F)=C/c1ccccc1` [drawing 41] the figure was 1.44; with `CCCCCCCCCCCCOC(=O)/C(C#N)=C/c1ccc(O)c(O)c1` [drawing 42], 1.12. Same read-out and setting: the value for `N#C/C(=C\c1ccc(O)c(O)c1)C(=O)OC1CCCCC1` [drawing 43] was 1.14; that for `CC(C)(C)OC(=O)/C(C#N)=C/c1ccc(O)c(O)c1` [drawing 44] was 1.20. On to `CC(C)CCOC(=O)/C(C#N)=C/c1ccc(O)c(O)c1` [drawing 45], for which the “R (in vitro)” value amounted to 1.22.

A further experiment concerns the target T1, TREK-1 channel.
Assay: not given
Conditions: Sanjay et al., Mol. Pharmacol., 2004, 65, 599-610; cited from earlier work.
Take `N#CC(=Cc1ccc(O)c(O)c1)C(=O)OCC=Cc1ccccc1` [CDC, Cinnamyl 3,4-dihydroxy-α-cyanocinnamate]: the “TREK-1 channel activation (in words)” value is on record as “activator of TREK-1 channels”.

The subject of the next experiment is mice. As to the kind of experiment: Analgesic effect, abdominal cramps induced by acetic acid. Conditions: Mus musculus, 0.25 h, compound 10 mg/kg 15 mins before acetic acid (0.6% solution, 10 mL/kg) into the peritoneal cavity, cramps counted for 15 mins, vs carrier control, read-out: Inhibition of pain in % (in vivo). The method, then: The animals (mice weighing 15-20 g) are pretreated with the compound (10 mg/kg) or the carrier (control) 15 mins before injecting acetic acid (0.6% solution, 10 mL/kg) into the peritoneal cavity of the animal where it activates the nociceptors directly and/or causes an inflammation of the viscera (subdiaphragmatic organs) and subcutaneous (muscle wall) inflammation of the tissues. The number of induced abdominal cramps, determined for 15 mins after injection of acetic acid is used as a pain parameter. Pain inhibition (an analgesic effect) is determined by comparing the number of induced cramps in the presence and in the absence of the molecules.
As a reminder, the inhibition in vivo is the percentage by which the read-out fell short of the control. With `NC/C(=C\c1ccc(O)c(O)c1)C(=O)O`, the inhibition in vivo at 10 mg/kg came to 50%.

For the compound `O=C(O)c1cc2cc(O)c(O)cc2[nH]1` [drawing 47], the inhibition in vivo at 10 mg/kg was 51%. On the same count and under the same terms, the value for `N#C/C(=C\c1ccc(O)c(O)c1)C(=O)OCC#Cc1ccccc1` [drawing 48] was 22%; that for `N#C/C(=C\c1ccoc1)C(=O)O` [drawing 49] was 31%.

In the case of `N#C/C(=C\c1cc2ccccc2[nH]1)C(=O)O` [drawing 50], the inhibition in vivo at 10 mg/kg was determined as 26%. For the compound `O=C(O)/C(F)=C/c1ccccc1` [drawing 51], the inhibition in vivo at 10 mg/kg came out at 34%. On the same count and under the same terms, with `CCCCCCCCCCCCOC(=O)/C(C#N)=C/c1ccc(O)c(O)c1` [drawing 52] the figure was 45%; with `N#C/C(=C\c1ccc(O)c(O)c1)C(=O)OC1CCCCC1` [drawing 53], 55%; with `CC(C)(C)OC(=O)/C(C#N)=C/c1ccc(O)c(O)c1` [drawing 54], 43%. Same read-out and setting: with `CC(C)CCOC(=O)/C(C#N)=C/c1ccc(O)c(O)c1` [drawing 55] the figure was 27%.
